Counter-ions that a name gives are not always drawn.
molecular target: T1, TLR7/NFKb HEK cells (Homo sapiens, UniProt Q9NYK1); test: HEK Cell Assay (TLR7/NFKb reporter, Steady-Glo luciferase readout); assay type: cell-based; details: 30 min compound preincubation, then R*48 agonist for 5 hours, read-out: Potency
T1 construct: expressed in transfected cells; host or cells: HEK cells (TLR7/NFKb reporter line)
T1 sequence (Q9NYK1 27-1049): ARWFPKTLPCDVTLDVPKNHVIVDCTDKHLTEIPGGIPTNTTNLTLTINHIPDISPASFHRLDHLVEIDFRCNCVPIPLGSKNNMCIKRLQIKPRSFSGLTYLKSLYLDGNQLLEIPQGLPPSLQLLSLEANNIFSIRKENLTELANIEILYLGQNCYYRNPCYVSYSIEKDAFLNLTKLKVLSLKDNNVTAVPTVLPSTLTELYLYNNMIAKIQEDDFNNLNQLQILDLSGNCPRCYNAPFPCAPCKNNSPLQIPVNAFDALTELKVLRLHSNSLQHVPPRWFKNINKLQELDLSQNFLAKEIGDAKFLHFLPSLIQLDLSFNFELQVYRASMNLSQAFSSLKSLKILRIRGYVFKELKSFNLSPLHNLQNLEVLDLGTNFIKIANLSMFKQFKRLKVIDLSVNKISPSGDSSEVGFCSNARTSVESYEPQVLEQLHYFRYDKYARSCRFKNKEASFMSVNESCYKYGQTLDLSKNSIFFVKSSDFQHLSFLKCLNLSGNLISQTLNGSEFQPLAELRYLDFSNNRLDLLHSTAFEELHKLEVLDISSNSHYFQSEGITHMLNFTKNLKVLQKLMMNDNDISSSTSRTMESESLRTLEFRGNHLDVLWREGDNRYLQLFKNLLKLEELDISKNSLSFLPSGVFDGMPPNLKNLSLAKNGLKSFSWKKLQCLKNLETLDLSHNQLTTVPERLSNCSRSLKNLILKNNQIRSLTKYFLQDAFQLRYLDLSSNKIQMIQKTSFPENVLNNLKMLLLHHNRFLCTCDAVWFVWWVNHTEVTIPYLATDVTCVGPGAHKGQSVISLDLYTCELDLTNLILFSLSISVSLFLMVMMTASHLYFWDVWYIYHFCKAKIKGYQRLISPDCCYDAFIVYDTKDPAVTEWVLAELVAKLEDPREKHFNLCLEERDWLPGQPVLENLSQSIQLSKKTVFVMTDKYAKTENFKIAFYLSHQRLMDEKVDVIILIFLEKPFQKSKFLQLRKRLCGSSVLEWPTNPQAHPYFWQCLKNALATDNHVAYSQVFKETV
How it was run: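 Steady-Glo luminescence after 5 h stimulation with R*48 agonist, following 30 min compound preincubation. Assay run in HEK cells carrying a TLR7/NFKb luciferase reporter, plated at 5000 cells/well and grown 24 h at 37° C (10% CO2) before treatment.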

With C[C@H]1C[C@@H](NC(=O)COCC2CCCO2)CN(c2ccc(C#N)c3nccnc23)C1 (stereo partly drawn) [Compound 166, N-[(3R,5S)-1-(8-cyanoquinoxalin-5-yl)-5-methylpiperidin-3-yl]-2-(oxolan-2-ylmethoxy)acetamide] as the compound, how does the IC50 read?
The IC50 was < 1 µM.

Which IC50 does the source give for CC1CC(C(=O)N2CCN(C)CC2)CN(c2ccc(C(F)(F)F)c3ncccc23)C1 (stereo not shown) [Compound 549, (4-Methyl-piperazin-1-yl)-[5-methyl-1-(8-trifluoromethyl-quinolin-5-yl)-piperidin-3-yl]-methanone] here?
Its IC50 is 1 to 10 µM.

Which IC50 does the source give for C[C@H]1C[C@@H](NC(=O)C(O)C2CC2)CN(c2ccc(C(F)(F)F)c3ncccc23)C1 (single isomer, unassigned) [Compound 521] here?
The IC50 was < 1 µM.

Which IC50 does the source give for C[C@H]1C[C@@H](N)CN(c2ccnc3ccccc23)C1 [Compound 11, (3R,5S)-5-methyl-1-(quinolin-4-yl)piperidin-3-amine] here?
The IC50 was 1 to 10 µM.

CC(O)C(=O)N[C@@H]1C[C@H](C)CN(c2ccc(C#N)c3nccnc23)C1 (stereo partly drawn) [Compound 265, N-[(3R,5S)-1-(8-cyanoquinoxalin-5-yl)-5-methylpiperidin-3-yl]-2-hydroxypropanamide] was tested. Which IC50 did it give?
Its IC50 is < 1 µM.

With N#Cc1ccc(N2C[C@H](NC(=O)C3CCN(C4CC4)CC3)C[C@H](C(F)(F)F)C2)c2cccnc12 [Compound 578, 1-Cyclopropyl-piperidine-4-carboxylic acid [(3R,5S)-1-(8-cyano-quinolin-5-yl)-5-trifluoromethyl-piperidin-3-yl]-amide] as the compound, how does the IC50 read?
The IC50 was < 1 µM.

How did the IC50 turn out when C[C@@H]1CN(c2ccnc3nccnc23)C[C@H](CN2CCC(N(C)C)CC2)O1 [Compound 55, N,N-dimethyl-1-(((2S,6R)-6-methyl-4-(pyrido[2,3-b]pyrazin-8-yl)morpholin-2-yl)methyl)piperidin-4-amine] was run?
The IC50 was < 1 µM.

With C[C@H]1C[C@@H](NC(=O)CN2CCOCC2)CN(c2ccc(C(F)(F)F)c3nccnc23)C1 [Compound 249, N-[(3R,5S)-5-methyl-1-[8-(trifluoromethyl)quinoxalin-5-yl]piperidin-3-yl]-2-(morpholin-4-yl)acetamide] as the compound, how does the IC50 read?
Its IC50 is < 1 µM.

With C[C@H]1C[C@@H](NC(=O)CC2CCCN(C)C2)CN(c2ccc(C#N)c3nccnc23)C1 (stereo partly drawn) [Compound 266, N-[(3R,5S)-1-(8-cyanoquinoxalin-5-yl)-5-methylpiperidin-3-yl]-2-(1-methylpiperidin-3-yl)acetamide hydrochloride] as the compound, how does the IC50 read?
The IC50 was < 1 µM.

For N#Cc1ccc(N2C[C@H](NC(=O)NCC3CC(F)(F)C3)C[C@H](C(F)(F)F)C2)c2cccnc12 [Compound 580, 1-[(3R,5S)-1-(8-Cyano-quinolin-5-yl)-5-trifluoromethyl-piperidin-3-yl]-3-(3,3-difluoro-cyclobutylmethyl)-urea], which IC50 is on record?
The IC50 was 1 to 10 µM.

For CN(C)CC(=O)N[C@H]1CN(c2ccc(C#N)c3nccnc23)CC(C)(C)C1 [Compound 217, N-[(3R)-1-(8-cyanoquinoxalin-5-yl)-5,5-dimethylpiperidin-3-yl]-2-(dimethylamino)acetamide], which IC50 is on record?
Its IC50 is < 1 µM.

For C[C@H]1C[C@@H](NC(=O)[C@@H](C)N)CN(c2ccnc3nccnc23)C1 [Compound 26, (R)-2-amino-N-((3R,5S)-5-methyl-1-(pyrido[2,3-b]pyrazin-8-yl)piperidin-3-yl)propanamide], which IC50 is on record?
Its IC50 is 1 to 10 µM.

For CC1(C)C[C@@H](N)CN(c2ccc(C#N)c3nccnc23)C1 [Compound 210, 8-[(5R)-5-amino-3,3-dimethylpiperidin-1-yl]quinoxaline-5-carbonitrile hydrochloride], which IC50 is on record?
Its IC50 is < 1 µM.

C[C@@H]1CN(c2ccnc3nccnc23)C[C@H](C)O1 [Compound 43, (2S,6R)-2,6-dimethyl-4-(pyrido[2,3-b]pyrazin-8-yl)morpholine] was tested. Which IC50 did it give?
Its IC50 is > 10 µM.

How did the IC50 turn out when CC(C)(C)NCC(=O)NCC1CCN(c2ccnc3nccnc23)CC1 [Compound 406, 2-tert-Butylamino-N-(1-pyrido[2,3-b]pyrazin-8-yl-piperidin-4-ylmethyl)-acetamide] was run?
The IC50 was 1 to 10 µM.

For CCN(CC)CCNCC1CCN(c2ccnc3ccc(F)cc23)CC1 [Compound 375, N,N-Diethyl-N′-[1-(6-fluoro-quinolin-4-yl)-piperidin-4-ylmethyl]-ethane-1,2-diamine], which IC50 is on record?
Its IC50 is 1 to 10 µM.

Reference: patent US10947213B1 (Merck Patent GmbH, priority 2015, dated 2021)
